Like-named read-outs stand apart in the source and are kept apart here.
Target: T1, human CTPS1 (Homo sapiens, UniProt P17812)
T1 construct: FLAG (with GG linker); His8 (with GG linker); purchased Proteros biostructures GmbH
T1 sequence (P17812 1-591): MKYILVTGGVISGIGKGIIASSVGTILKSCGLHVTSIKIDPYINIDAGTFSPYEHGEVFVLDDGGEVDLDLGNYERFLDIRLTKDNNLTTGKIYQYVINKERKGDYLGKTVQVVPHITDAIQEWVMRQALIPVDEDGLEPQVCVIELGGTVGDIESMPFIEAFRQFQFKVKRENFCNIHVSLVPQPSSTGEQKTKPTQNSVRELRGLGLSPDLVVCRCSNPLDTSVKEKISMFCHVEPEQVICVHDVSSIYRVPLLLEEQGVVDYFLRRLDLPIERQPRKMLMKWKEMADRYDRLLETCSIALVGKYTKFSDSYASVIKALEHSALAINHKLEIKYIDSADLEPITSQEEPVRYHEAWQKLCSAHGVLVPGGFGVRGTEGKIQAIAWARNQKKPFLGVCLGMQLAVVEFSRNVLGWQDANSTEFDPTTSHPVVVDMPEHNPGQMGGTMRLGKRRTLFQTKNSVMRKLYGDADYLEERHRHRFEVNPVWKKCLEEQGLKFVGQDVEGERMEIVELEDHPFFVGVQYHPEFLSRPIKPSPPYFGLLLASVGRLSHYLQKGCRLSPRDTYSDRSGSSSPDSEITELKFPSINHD
Assay: Human CTPS1 enzyme inhibition, ADP-Glo Max assay
Type: biochemical
Protocol: The enzyme inhibitory activities of compounds invented against the target of interest were determined using the ADP-Glo™ Max assay (Promega, UK). Assays for human CTPS1 were performed in 1× assay buffer containing 50 mM Tris, 10 mM MgCl2, 0.01% Tween-20, pH to 8.0 accordingly. Finally, immediately before use, L-cysteine was added to the 1× assay buffer to a final concentration of 2 mM. All reagents are from Sigma-Aldrich unless specified otherwise.
3× human CTPS1 protein was prepared in 1× assay buffer to the final working protein concentration required for the reaction. A 2 uL volume per well of 3× human CTPS1 protein was mixed with 2 uL per well of 3× test compound (compound prepared in 1× assay buffer to an appropriate final 3× compound concentration respective to the concentration response curve designed for the compounds under test) for 10 minutes at 25° C. […] ADP-Glo™ Max reagent was added for 60 minutes (6 μL per well) and subsequently ADP-Glo™ Max development reagent was added for 60 minutes (12 uL per well) prior to signal detection in a microplate reader (EnVision® Multilabel Reader, Perkin Elmer). Following each reagent addition over the course of the assay, assay plates were pulse centrifuged for 30 seconds at 500 rpm.
In all cases, the enzyme converts ATP to ADP and the ADP-Glo™ Max reagent subsequently depletes any remaining endogenous ATP in the reaction system. The ADP-Glo™ Max detection reagent converts the ADP that has been enzymatically produced back into ATP and using ATP as a substrate together with luciferin for the enzyme luciferase, light is generated which produces a detectable luminescence. […] The percentage inhibition produced by each concentration of compound was calculated using the equation shown below: […]

[1] = ADP-Glo Max assay, Table 10, read-out: Human CTPS1 Enzyme Inhibition, IC50 grouped by potency range (CTPS1)

Row | SMILES | IC50 [1] | IC50 (Table 12, ADP-Glo Max assay, read-out: CTPS1 (Human CTPS1 Enzyme Inhibition data grouped by potency range))
1 | CC(C)(C(=O)Nc1ccc(-c2cncc(Cl)c2)cn1)c1csc(NS(=O)(=O)C2CC2)n1 [T225, N-(5′-chloro-[3,3′-bipyridin]-6-yl)-2-(2-(cyclopropanesulfonamido)thiazol-4-yl)-2-methylpropanamide] | < 100 nM | –
2 | CCOc1cncc(-c2ccc(NC(=O)C3(c4ccnc(NS(=O)(=O)C5CC5)n4)CCC(N)CC3)nc2)n1 (stereo not shown) [P304] | – | < 100 nM
3 | CC(C)(C(=O)Nc1ccc(-c2cncc(OC(F)F)c2)cn1)c1csc(NS(=O)(=O)C2CC2)n1 [T115, 2-(2-(cyclopropanesulfonamido)thiazol-4-yl)-N-(5′-(difluoromethoxy)-[3,3′-bipyridin]-6-yl)-2-methylpropanamide] | < 100 nM | –
4 | CCCOc1cncc(-c2ccc(NC(=O)C(C)(C)c3csc(NS(=O)(=O)C4CC4)n3)nc2)n1 [T38, 2-(2-(cyclopropanesulfonamido)thiazol-4-yl)-2-methyl-N-(5-(6-propoxypyrazin-2-yl)pyridin-2-yl)propanamide] | < 100 nM | –
5 | O=C(Nc1ccc(-c2ccccc2)cc1)C(F)(F)c1csc(NS(=O)(=O)C2CC2)n1 [T60, N-([1,1′-biphenyl]-4-yl)-2-(2-(cyclopropanesulfonamido)thiazol-4-yl)-2,2-difluoroacetamide] | 100 to 1000 nM | –
6 | CC(C)(C(=O)Nc1ccc(-c2cncc(OCC(F)(F)F)c2)cn1)c1csc(NS(=O)(=O)C2CC2)n1 [T114, 2-(2-(cyclopropanesulfonamido)thiazol-4-yl)-2-methyl-N-(5′-(2,2,2-trifluoroethoxy)-[3,3′-bipyridin]-6-yl)propanamide] | 100 to 1000 nM | –
7 | CC(C)(C(=O)Nc1ccc(-c2cncc(OC3CCC3)n2)cc1)c1csc(NS(=O)(=O)C2CC2)n1 [T54, N-(4-(6-cyclobutoxypyrazin-2-yl)phenyl)-2-(2-(cyclopropanesulfonamido)thiazol-4-yl)-2-methylpropanamide] | 100 to 1000 nM | –
8 | COc1cc(-c2cccnc2)ccc1NC(=O)C(C)(C)c1csc(NS(=O)(=O)C2CC2)n1 [T149, 2-(2-(cyclopropanesulfonamido)thiazol-4-yl)-N-(2-methoxy-4-(pyridin-3-yl)phenyl)-2-methylpropanamide] | < 100 nM | –
9 | CC(C)(C(=O)Nc1ccc(-c2cnccn2)c(C#N)c1)c1csc(NS(=O)(=O)C2CC2)n1 [T34, N-(3-cyano-4-(pyrazin-2-yl)phenyl)-2-(2-(cyclopropanesulfonamido)thiazol-4-yl)-2-methylpropanamide] | 100 to 1000 nM | –
10 | CC(C)(C(=O)Nc1ccc(-c2cncc(OC(F)F)c2)cc1F)c1csc(NS(=O)(=O)C2CC2)n1 [T139, 2-(2-(cyclopropanesulfonamido)thiazol-4-yl)-N-(4-(5-(difluoromethoxy)pyridin-3-yl)-2-fluorophenyl)-2-methylpropanamide] | < 100 nM | –
11 | CC(C)(C(=O)Nc1ccc(-c2cncc(OCC(F)(F)F)c2)cc1)c1csc(NS(=O)(=O)C2CC2)n1 [T135, 2-(2-(cyclopropanesulfonamido)thiazol-4-yl)-2-methyl-N-(4-(5-(2,2,2-trifluoroethoxy)pyridin-3-yl)phenyl)propanamide] | 100 to 1000 nM | –
12 | COc1ncccc1-c1ccc(NC(=O)C(C)(C)c2csc(NS(=O)(=O)C3CC3)n2)cc1 [T44, 2-(2-(cyclopropanesulfonamido)thiazol-4-yl)-N-(4-(2-methoxypyridin-3-yl)phenyl)-2-methylpropanamide] | 100 to 1000 nM | –

Results, then the compound that gave them:

Row | IC50 [1] | IC50 (Table 12, ADP-Glo Max assay, read-out: CTPS1 (Human CTPS1 Enzyme Inhibition data grouped by potency range)) | SMILES
13 | 1000 to 10000 nM | – | COc1nccc(C)c1-c1ccc(NC(=O)C(C)(C)c2csc(NS(=O)(=O)C3CC3)n2)cc1 [T250, 2-(2-(cyclopropanesulfonamido)thiazol-4-yl)-N-(4-(2-methoxy-4-methylpyridin-3-yl)phenyl)-2-methylpropanamide]
14 | < 100 nM | – | CC(C)(C(=O)Nc1ccc(-c2cncc(C(F)(F)F)n2)cn1)c1csc(NS(C)(=O)=O)n1 [T425, 2-methyl-2-(2-(methylsulfonamido)thiazol-4-yl)-N-(5-(6-(trifluoromethyl)pyrazin-2-yl)pyridin-2-yl)propanamide]
15 | 1000 to 10000 nM | – | Cc1cc(Cl)cc(-c2ccc(NC(=O)C(C)(C)c3csc(NS(=O)(=O)C4CC4)n3)nc2)c1 [T231, N-(5-(3-chloro-5-methylphenyl)pyridin-2-yl)-2-(2-(cyclopropanesulfonamido)thiazol-4-yl)-2-methylpropanamide]
16 | < 100 nM | – | COc1cncc(-c2ccc(NC(=O)C(C)(C)c3csc(NS(=O)(=O)C4CC4)n3)c(F)c2)n1 [T275, 2-(2-(cyclopropanesulfonamido)thiazol-4-yl)-N-(2-fluoro-4-(6-methoxypyrazin-2-yl)phenyl)-2-methylpropanamide]
17 | 100 to 1000 nM | – | Cc1ccncc1-c1ccc(NC(=O)C(C)(C)c2csc(NS(=O)(=O)C3CC3)n2)cc1 [T254, 2-(2-(cyclopropanesulfonamido)thiazol-4-yl)-2-methyl-N-(4-(4-methylpyridin-3-yl)phenyl)propanamide]
18 | < 100 nM | – | Cc1cncc(-c2ccc(NC(=O)C(C)(C)c3csc(NS(=O)(=O)C4CC4)n3)nc2)c1 [T249, 2-(2-(cyclopropanesulfonamido)thiazol-4-yl)-2-methyl-N-(5′-methyl-[3,3′-bipyridin]-6-yl)propanamide]
19 | 1000 to 10000 nM | – | CC(C)(C(=O)Nc1ccc(-c2cccnc2)cc1)c1csc(NS(=O)(=O)C(C)(C)C)n1 [T303, 2-(2-((1,1-dimethylethyl)sulfonamido)thiazol-4-yl)-2-methyl-N-(4-(pyridin-3-yl)phenyl)propanamide]
20 | < 100 nM | – | COc1cc(-c2cncc(Cl)c2)ccc1NC(=O)C(C)(C)c1csc(NS(=O)(=O)C2CC2)n1 [T256, N-(4-(5-chloropyridin-3-yl)-2-methoxyphenyl)-2-(2-(cyclopropanesulfonamido)thiazol-4-yl)-2-methylpropanamide]
21 | 1000 to 10000 nM | – | COc1ncc(-c2ccc(NC(=O)C(C)(C)c3csc(NS(=O)(=O)C4CC4)n3)cc2)cc1C [T251, 2-(2-(cyclopropanesulfonamido)thiazol-4-yl)-N-(4-(6-methoxy-5-methylpyridin-3-yl)phenyl)-2-methylpropanamide]
22 | < 100 nM | – | CCOc1cncc(-c2ccc(NC(=O)C(N)c3csc(NS(=O)(=O)C4CC4)n3)cc2)n1 (stereo not shown) [T325, 2-Amino-2-(2-(cyclopropanesulfonamido)thiazol-4-yl)-N-(4-(6-ethoxypyrazin-2-yl)phenyl)acetamide]
23 | 100 to 1000 nM | – | CCOc1cncc(-c2ccc(NC(=O)C(F)(F)c3csc(NS(=O)(=O)C4CC4)n3)nc2)n1 [T422, 2-(2-(cyclopropanesulfonamido)thiazol-4-yl)-N-(5-(6-ethoxypyrazin-2-yl)pyridin-2-yl)-2,2-difluoroacetamide]
24 | < 100 nM | – | CCOc1cncc(-c2ccc(NC(=O)C(C)(C)c3csc(NS(=O)(=O)C4CC4)n3)cc2)c1 [T290, 2-(2-(cyclopropanesulfonamido)thiazol-4-yl)-N-(4-(5-ethoxypyridin-3-yl)phenyl)-2-methylpropanamide]
25 | 100 to 1000 nM | – | CN(C)c1cncc(-c2ccc(NC(=O)C(C)(C)c3csc(NS(=O)(=O)C4CC4)n3)cc2)c1 [T257, 2-(2-(cyclopropanesulfonamido)thiazol-4-yl)-N-(4-(5-(dimethylamino)pyridin-3-yl)phenyl)-2-methylpropanamide]
26 | < 100 nM | – | CCOc1cncc(-c2ccc(NC(=O)Cc3csc(NS(=O)(=O)C4CC4)n3)c(F)c2)n1 [T423, 2-(2-(cyclopropanesulfonamido)thiazol-4-yl)-N-(4-(6-ethoxypyrazin-2-yl)-2-fluorophenyl)acetamide]
27 | 100 to 1000 nM | – | COc1cccc(-c2ccc(NC(=O)C(C)(C)c3csc(NS(=O)(=O)C4CC4)n3)cc2)n1 [T269, 2-(2-(cyclopropanesulfonamido)thiazol-4-yl)-N-(4-(6-methoxypyridin-2-yl)phenyl)-2-methylpropanamide]
28 | < 100 nM | – | CC(C)(C(=O)Nc1ccc(-c2cncc(F)c2)cc1)c1csc(NS(=O)(=O)C2CC2)n1 [T253, 2-(2-(cyclopropanesulfonamido)thiazol-4-yl)-N-(4-(5-fluoropyridin-3-yl)phenyl)-2-methylpropanamide]

Source: patent US20230086703A1, “N-(4-(5-chloropyridin-3-yl)phenyl)-2-(2-(cyclopropanesulfonamido)pyrimidin-4-yl) butanamide derivatives and related compounds as human CTPS1 inhibitors for the treatment of proliferative diseases” (Step Pharma S.A.S., priority 2019, published 2023)
